In ChEMBL document CHEMBL1201862, “PubChem BioAssay data set” (2004):
Calls of active or inactive are those of the source.

Key:
[1] = luciferase reporter signal suppression in cells – H4 neuroglioma cells, luminescence, dose response (AID 1990); format: functional, cell-based
[2] = Luminescence Cell-Based Dose Response HTS to Identify Inhibitors of 5'UTR Stem-Loop Driven Prion Protein mRNA Translation in H4 Neuroglioblastoma Cells. [Related pubchem assays: 1827 (Project Summary), 1813 (Primary HTS)]; format: functional
[3] = alpha-synuclein stem-loop luciferase translation blockers – H4 neuroglioma cells, luminescence, confirmation (AID 1988); format: functional, cell-based
[4] = microbe, parasite or virus in culture; format: functional; conditions: Mycobacterium tuberculosis
[5] = Luminescence Cell-Based Dose Retest to Confirm Inhibitors of Cancer Stem Cells. [Related pubchem assays (depositor defined):AID2717, AID2721]; format: functional; conditions: Homo sapiens
HEK293 = experiment: EBV LMP1 TES2 canonical NF-kB signalling blockers – cell-based, HEK293, luciferase, cherry-pick, dose response (AID 588343); format: functional; conditions: Homo sapiens
INS1 = experiment: INS-1E survival protection against cytokine death – cell-based, luminescence, retest, dose response (AID 449756); format: functional; conditions: Rattus norvegicus;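 also: cell death triggered by IL-1 beta plus TNF-alpha plus IFN-gamma mixture; protective hits raise ATP signal compared with cytokine alone wells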
[6] = blockers of HIV-1 envelope-mediated cell-cell fusion – cherry-pick, dose response (AID 652057); format: functional, cell-based
[7] = viability loss in CEM21 cells – cell-based, CellTiter-Glo luminescence, cherry-picked, cytotoxicity control for viral fusion inhibitor project, dose response (AID 652042); format: functional;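 also: potency for signal decrease meaning cytotoxicity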
[8] = blockers of HIV-1 ZM109 envelope-driven cell-cell fusion – HeLa effector, CEM target cells, luciferase, cherry-pick, dose response (AID 652058); format: functional, cell-based;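 also: luciferase signal from HIV-1 Env mediated cell-cell fusion of effector and target cells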
Paired box protein Pax-8 = Paired box protein Pax-8 (Homo sapiens, UniProt Q06710); experiment: PAX8 transcriptional activity inhibition in RMG-I – RMG-I cells, luciferase, cherry-pick, dose response (AID 687027); format: functional, cell-based;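 also: luciferase reporter driven by Pax8 target thyroperoxidase promoter measured by SteadyGlo luminescence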
[9] = off-target signal loss in HeLa-CEM21 co-culture – HeLa F-luc CTL cells, cherry-picked, counter-screen for HIV-1 Env fusion inhibitor project, dose response (AID 652040); format: functional, cell-based;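 also: potency for signal decrease marking cytotoxic or nonspecific inhibition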
[10] = HIV-1 AD8 envelope cell-cell fusion blockers – cherry-pick, dose response (AID 652062); format: functional, cell-based;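 also: luciferase signal from cell-cell fusion driven by HIV-1 clade B AD8 Env; potency is for inhibitors of fusion seen as a drop in luminescence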
[11] = molecular target: Luciferin 4-monooxygenase (Photinus pyralis, UniProt P08659); experiment: inhibition of purified Photinus pyralis luciferase – biochemical, luminescence, dose response (AID 1891)
[12] = Luminescence Cell-Based Dose Confirmation HTS to Identify Inhibitors of Platelet Dense Granule Release. [Related pubchem assays: 1663 (Primary HTS), 1678 (Summary of Project)]; format: functional
[13] = THP-1 cell cytotoxicity, dose response, cytotoxicity control for non-replicating M. tuberculosis project (AID 489025); format: functional
[14] = Vero E6 cell cytotoxicity, dose response, cytotoxicity control for non-replicating M. tuberculosis project, secondary assay (AID 492998); format: functional, VeroE6; conditions: Vero C1008
cells = format: functional
[15] = A549 cell cytotoxicity, dose response, cytotoxicity control, plate reader, cherry-pick, antagonist series (AID 743412); format: functional, cell-based
[16] = toxicity toward HepG2 liver cells – cell-based, plate reader, cherry-pick, antagonist series, cytotoxicity control, dose response (AID 743416); format: functional
[17] = blockers of bursicon-stimulated LGR2 cAMP reporter – cell-based, HEK293, CRE-luciferase reporter, cherry pick, set 2, dose response (AID 743343); format: functional;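 also: transfected cells were stimulated with diluted bursicon conditioned medium after compound addition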
[18] = blockade of melanocortin 4 receptor signaling – cell-based, plate reader, cherry pick, counter-screen for LGR2 antagonist project, dose response (AID 743444); format: functional;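 also: transfected HEK 293 cells stimulated with alpha-MSH peptide; potency of inhibitors of the alpha-MSH evoked signal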
[19] = viability loss in HEK293 cells – cell-based, plate reader, cherry-picked samples, cytotoxicity control, dose response (AID 743446); format: functional
Coagulation factor XII = molecular target: T1, Coagulation factor XII (Homo sapiens, UniProt P00748); format: functional;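 also: activated factor XIIa alpha cleaving a fluorogenic AMC peptide substrate; inhibitor potency from loss of enzyme activity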
T1 sequence (P00748 whole entry): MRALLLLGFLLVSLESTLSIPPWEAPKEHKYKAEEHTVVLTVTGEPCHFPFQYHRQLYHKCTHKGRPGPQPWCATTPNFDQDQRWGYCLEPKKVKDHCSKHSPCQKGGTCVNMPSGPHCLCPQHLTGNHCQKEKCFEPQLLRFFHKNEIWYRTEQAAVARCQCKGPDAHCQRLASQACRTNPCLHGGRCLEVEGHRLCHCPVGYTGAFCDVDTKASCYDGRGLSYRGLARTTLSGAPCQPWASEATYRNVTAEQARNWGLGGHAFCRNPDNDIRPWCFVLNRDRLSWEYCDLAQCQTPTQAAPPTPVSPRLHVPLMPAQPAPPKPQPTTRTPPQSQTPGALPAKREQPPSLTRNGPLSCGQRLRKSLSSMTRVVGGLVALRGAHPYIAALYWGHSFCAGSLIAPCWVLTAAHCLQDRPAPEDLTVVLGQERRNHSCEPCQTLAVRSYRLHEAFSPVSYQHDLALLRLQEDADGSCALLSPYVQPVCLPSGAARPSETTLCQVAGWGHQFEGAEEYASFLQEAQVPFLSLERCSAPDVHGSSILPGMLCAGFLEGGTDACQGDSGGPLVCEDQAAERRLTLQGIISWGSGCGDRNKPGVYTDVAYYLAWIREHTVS

Mu-type opioid receptor = Mu-type opioid receptor (Homo sapiens, UniProt P35372); format: functional, cell-based;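 also: U2OS cells with beta-arrestin recruitment to OPRM1 by beta-gal complementation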
[20] = molecular target: 5-hydroxytryptamine receptor 2A (Mus musculus, UniProt P35363); format: functional, cell-based;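 also: CHO-K1 cells with tagged receptor and beta-arrestin; agonist potency measured as compound-induced activation of the receptor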
5-hydroxytryptamine receptor 2A, sequence (P35363 whole entry): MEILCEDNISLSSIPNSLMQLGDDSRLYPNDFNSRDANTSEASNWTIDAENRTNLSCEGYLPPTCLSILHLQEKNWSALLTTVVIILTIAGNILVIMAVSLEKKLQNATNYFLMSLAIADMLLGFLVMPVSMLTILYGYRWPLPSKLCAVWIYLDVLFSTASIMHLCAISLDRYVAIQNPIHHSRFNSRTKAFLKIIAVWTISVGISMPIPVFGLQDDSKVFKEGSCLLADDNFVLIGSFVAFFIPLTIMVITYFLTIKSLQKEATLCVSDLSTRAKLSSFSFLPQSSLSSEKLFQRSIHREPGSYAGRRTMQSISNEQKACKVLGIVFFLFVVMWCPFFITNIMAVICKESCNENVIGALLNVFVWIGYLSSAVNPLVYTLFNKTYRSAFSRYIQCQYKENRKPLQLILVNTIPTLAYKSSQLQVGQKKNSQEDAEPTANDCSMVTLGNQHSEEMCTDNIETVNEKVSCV

Paired box protein Pax-8, sequence (Q06710 whole entry, the tested form may be a part): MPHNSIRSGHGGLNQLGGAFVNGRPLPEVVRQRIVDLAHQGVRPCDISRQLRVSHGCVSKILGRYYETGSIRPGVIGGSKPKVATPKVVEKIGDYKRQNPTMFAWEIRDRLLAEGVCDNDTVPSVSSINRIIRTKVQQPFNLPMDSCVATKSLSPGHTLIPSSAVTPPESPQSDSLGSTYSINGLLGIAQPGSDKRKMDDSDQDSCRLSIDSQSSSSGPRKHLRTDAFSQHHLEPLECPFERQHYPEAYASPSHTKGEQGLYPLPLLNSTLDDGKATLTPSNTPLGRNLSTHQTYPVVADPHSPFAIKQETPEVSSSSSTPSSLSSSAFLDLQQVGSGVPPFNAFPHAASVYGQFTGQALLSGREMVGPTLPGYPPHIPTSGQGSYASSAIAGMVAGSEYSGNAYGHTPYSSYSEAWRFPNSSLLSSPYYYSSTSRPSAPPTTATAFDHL
Luciferin 4-monooxygenase, sequence (P08659 whole entry): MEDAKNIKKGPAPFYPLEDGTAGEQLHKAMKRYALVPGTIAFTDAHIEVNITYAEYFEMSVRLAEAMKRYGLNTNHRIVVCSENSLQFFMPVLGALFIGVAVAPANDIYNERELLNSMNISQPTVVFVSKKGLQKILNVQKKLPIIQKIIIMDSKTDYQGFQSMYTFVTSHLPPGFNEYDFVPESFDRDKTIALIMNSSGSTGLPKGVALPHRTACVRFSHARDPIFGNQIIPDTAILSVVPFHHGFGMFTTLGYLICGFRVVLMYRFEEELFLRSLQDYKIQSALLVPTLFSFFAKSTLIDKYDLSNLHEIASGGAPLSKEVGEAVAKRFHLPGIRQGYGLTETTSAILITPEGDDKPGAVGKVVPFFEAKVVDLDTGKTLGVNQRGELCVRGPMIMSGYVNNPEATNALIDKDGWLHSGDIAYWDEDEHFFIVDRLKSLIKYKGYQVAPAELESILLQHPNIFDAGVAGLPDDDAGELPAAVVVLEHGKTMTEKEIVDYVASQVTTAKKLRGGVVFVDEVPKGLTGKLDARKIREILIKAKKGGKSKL
Mu-type opioid receptor, sequence (P35372 whole entry): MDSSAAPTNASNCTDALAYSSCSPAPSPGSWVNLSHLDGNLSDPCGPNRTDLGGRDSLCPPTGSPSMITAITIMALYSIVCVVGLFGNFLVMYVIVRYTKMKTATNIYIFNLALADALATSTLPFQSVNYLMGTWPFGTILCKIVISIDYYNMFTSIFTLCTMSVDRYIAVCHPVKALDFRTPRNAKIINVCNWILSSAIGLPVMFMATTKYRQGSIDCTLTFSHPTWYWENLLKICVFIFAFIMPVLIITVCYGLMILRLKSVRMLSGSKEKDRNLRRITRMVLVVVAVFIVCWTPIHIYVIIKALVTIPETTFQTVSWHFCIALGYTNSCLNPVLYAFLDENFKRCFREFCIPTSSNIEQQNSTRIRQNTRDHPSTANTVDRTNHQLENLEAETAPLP

CCN(CC)S(=O)(=O)c1cccc(NC(=O)Nc2cccc(C(F)(F)F)c2)c1
active: CC50 [4] 13.8 µM | AC50 [5] 3.36 µM | AC50 (HEK293) 21.4 µM | AC50 (INS1) 5.03 µM | AC50 [6] 0.542 µM | AC50 [7] 13.6 µM | AC50 [8] < 0.26 µM | AC50 (Paired box protein Pax-8) 14.9 µM | AC50 [9] 7.47 µM | AC50 [10] 10.4 µM
> 120 µM (not active): EC50 [1] | EC50 [2] | EC50 [3]

Cc1cnc(NC(=O)c2ccccn2)s1
active: EC50 [11] 34.9 µM | EC50 [12] 18 µM | CC50 [13] > 40 µM | CC50 [14] > 20 µM | IC50 (cells) 4.77 µM | AC50 (HEK293) 8.48 µM | AC50 [15] 24 µM | AC50 [16] 27.8 µM | AC50 [17] 7.9 µM | AC50 [18] 6.72 µM | AC50 [19] 30.8 µM

O=C(CN1CCN(c2ccccn2)CC1)Nc1ccc(Oc2ccccc2)cc1
active: EC50 [20] 1.17 µM
inactive: IC50 (Coagulation factor XII) > 50 µM | EC50 (Mu-type opioid receptor) 92.4 µM
